We go through 3 molecules from patent publication US20170304309A1, “CAFFEINE FOR THE TREATMENT OF MYOTONIC DYSTROPHY TYPE 1 AND TYPE 2” (UNIVERSITAT DE VALÈNCIA, priority 2014, published 2017).

One data set deals with sodium channel. The settings on record: small studies; cited from earlier work.
The test system of the next data set is DM1 model flies. The data set can be described thus: Climbing assay in DM1 model flies. The class given is in vivo, Drosophila. The conditions noted are these: 1.72 mM caffeine in nutritive media vs DMSO. The protocol: Groups of ten 5-day-old males were transferred into vials of 1.5 cm in diameter and 25 cm in height, after a period of 24 hours without anesthesia. The height reached from the bottom of the vial by each fly in a period of 10 s was recorded with a camera. For each genotype, approximately 30 flies were tested. […] We used a t-test to assess the statistical difference between the two groups of flies, fed with or without compound.

The subject of data set [1] is human MBNL1 promoter under Drosophila muscleblind ME enhancer (eGFP reporter). The data set is described as follows: eGFP reporter expression in ME:hsaP1-eGFP transgenic flies. The data set is classed as in vivo. The settings on record: heterozygous ME:hsaP1-eGFP flies, 25 mg/ml caffeine in food, 8 h, vs sucrose.
In data set [2] the test system is ribonuclear foci in DM1 fibroblasts. The data set can be described thus: Ribonuclear foci detection by in situ hybridization in DM1 fibroblasts. The conditions noted are these: caffeine in culture media, vs DMSO.
Procedure: Cell model of the disease (provided by the D. Furling's laboratory, Institute of Myologie, Paris) consisted of normal and DM1 (1300 CTG repeats) immortalized (hTERT) skin fibroblasts expressing conditional MyoD. […] Fibroblasts were transdifferentiated in myoblasts by inducing expression of MyoD. Cells were plated in muscle differentiation medium (MDM) made of DMEM 4.5 g/L glucose with 1% P/S, 2% horse serum, 1% apo-transferrin (10 mg/ml), 0.1% insulin (10 mg/ml) and 0.02% doxycyclin (10 mg/ml) for 48 h. For compound testing fibroblasts were aliquoted in 24-well plate with 3.5×10^4 cells per well and were differentiated as before.
For data set [3], the system named is CUG repeat RNA (6-FAM-CUG23). The data set can be described thus: Fluorescence polarization assay with 6-FAM-CUG23 RNA. The class given is binding. The conditions noted are these: increasing concentrations, up to twice those of positive control pentamidine. The protocol: This was assessed in fluorescence polarization spectroscopy experiments in which fluorescent CUG RNA probe (carboxyfluorescein (6-FAM)-labeled) was incubated in increasing concentrations of caffeine.
Carboxyfluorescein-labeled CUG RNA (23 CUG repeats; 6-FAM-CUG23) at 6 nM was incubated with caffeine at different concentrations in binding buffer (50 mM Tris-HCl pH 7.0, 250 mM NaCl, 50 μM ZnCl2, 10% glycerol, 1 mM DTT) on ice for 20 min in the dark. Polarization was measured in a EnVision® Multilabel Reader using as excitation filter FP480 and as emission filter FP535.
A general note: Polarisation of emitted light reports the rotation of a fluorescent probe.

Another data set relates to CAG-CTG repeat sequences. The conditions noted are these: high doses of caffeine, close to 2 mM; cited from earlier work.
A further data set deals with normal fibroblasts. The data set can be described thus: MTS cell viability of normal fibroblasts exposed to caffeine. The data set is classed as cell-based, human. The settings on record: highest concentration (500 μM), 24 h, relative to cells not exposed to caffeine. The protocol:
Cells were aliquoted in 96-well plate with 1.0×10^4 cells per well and incubated for 24 h. […] To measure cell viability, MTS tetrazolium salt was added to each well and was incubated for 4 h at 37° C. in a humidified chamber with 5% CO2. The conversion of MTS into soluble formazan (accomplished by dehydrogenase enzymes from metabolically active cells) was measured by absorbance at 490 nm (CellTiter 96® Aqueous Non-Radioactive Cell Profileration Assay, Promega). Data were transformed to percentage of survival relative to cells not exposed to caffeine, which established 100% viability.

The test system of a further data set is CUG repeats. The settings on record: WO03/020977; cited from earlier work.
Another data set deals with foci. The settings on record: WO03/020977; cited from earlier work.
For data set [4], the system named is MBNL1 expression in human DM1 myoblasts. The data set is described as follows: Immunodetection of MBNL1 in DM1 myoblasts. The class given is cell-based.
Procedure: Fibroblasts were transdifferentiated in myoblasts by inducing expression of MyoD. Cells were plated in muscle differentiation medium (MDM) made of DMEM 4.5 g/L glucose with 1% P/S, 2% horse serum, 1% apo-transferrin (10 mg/ml), 0.1% insulin (10 mg/ml) and 0.02% doxycyclin (10 mg/ml) for 48 h. For compound testing fibroblasts were aliquoted in 24-well plate with 3.5×10^4 cells per well and were differentiated as before. […] Cells were then incubated with ABC solution (ABC kit, VECTASTAIN) for 30 min at room temperature, followed by PBT washes and incubation with streptavidin-FITC (1:1000) for 20 min.
The subject of data set [5] is DM1 pathology (splicing defects). The conditions noted are these: cited from earlier work.

Structures are written as SMILES.

Turning to `Cc1cccc(C)c1OCC(C)N` (stereo not drawn) [Mexiletine, mexiletine], the myotonia result with sodium channel is “reduced”.

Consider `Cn1c(=O)c2c(ncn2C)n(C)c1=O` [caffeine], for which the climbing velocity entry in the data set with DM1 model flies is “significantly improved”. In addition, the “expression of the eGFP reporter, normalized to total protein” value in [1] was “significantly increase”. The “mean number of ribonuclear foci per cell” value in data set [2] is listed as “increased”. Moreover, the “polarization values of 6-FAM-CUG RNA (binding to CUG repeats)” value in data set [3] is given as “did not increase”. In the data set on CAG-CTG repeat sequences, the “increase of the rate of expansion” value is roughly 63%. In addition, in the data set on normal fibroblasts, the “percentage of survival of normal fibroblasts (living cells)” value is “greater than 50%”. Besides, the “binding to CUG repeats” value with CUG repeats is recorded as “not able to bind”. The number of foci result with foci is listed as “increases”. Also, the “MBNL1 expression in the cytoplasm and in the cell nucleus” value in data set [4] (125 and 250 μM caffeine, 48 h, vs DMSO alone) is “increased”. Further, the “number of MBNL1-containing foci” value in [4] (caffeine-treated vs DMSO-treated cells) is reported as “qualitatively higher”.

As to `N=C(N)c1ccc(OCCCCCOc2ccc(C(=N)N)cc2)cc1` [pentamidine], the “rescue of DM1 pathology” value in data set [5] is listed as “partial rescue”.
